Data from US20200246347A1, “Substituted Pyrrolopyridine-Derivatives” (BAYER PHARMA AKTIENGESELLSCHAFT, priority 2017, published 2020).

Columns and labels:
pSer376-SLP-76 = assay: Phosphorylation assay in human cell line (Jurkat E6.1 overexpressing FLAG-tagged SLP-76, a-CD3 stimulated); type: cell-based; details: 30 min at 37° C., Jurkat E6.1 cells; for % amount of pSer376-SLP-76 @ 10 μM: 10 μM compound; for % amount of pSer376-SLP-76 @ 20 μM: 20 μM compound
Method: Phosphorylation assays were carried out in Jurkat E6.1 cells from American Type Culture Collection (ATCC) stably overexpressing human FLAG-tagged SLP-76 (proprietary). […] Applied compounds were tested at either fixed concentration of 10 μmol/L and 20 μmol/L or in a 8 point dose response titration of increase compound concentration with 10 nmol/L. 50 nmol/L. 100 nmol/L. 500 nmol/L. 1 μmol/L. 5 μmol/L. 10 μmol/L and 20 μmol/L in triplicates. The cells were washed once in phosphate-buffered saline (pH 7.4). Cells were lysed using a lysis buffer containing 50 mmol/L Tris-Cl (pH 7.5). 150 mM NaCl. 2 mM EDTA. 1% Triton-X 100. 0.5% Na-DOC. 0.1% SDS. […] Probe antibodies used were a rabbit monoclonal antibody supernatant raised against human phospho-Ser376-SLP-76 peptide (proprietary) and for mormalization an a-alpha-Tubulin. mouse monoclonal antibody (Sigma #T9026). […] Cells with a-CD3 treatment only were used as negative control (min control. which represent the minimally possible inhibition of pSer376-SLP-76 by a test compound)
AUC values of each respective test sample were normalized using the AUC of housekeeping gene alpha-Tubulin and AUC of pSer376-SLP-76 of the min control. The percentage of the amount of pSer-SLP-76 in the treatment samples was calculated using the max control and min control values of the respective Peggy Sue™ run.

MAP4K1 = MAP4K1 (Homo sapiens, UniProt Q92918); assay: biochemical
Chain of MAP4K1 (Q92918 whole entry): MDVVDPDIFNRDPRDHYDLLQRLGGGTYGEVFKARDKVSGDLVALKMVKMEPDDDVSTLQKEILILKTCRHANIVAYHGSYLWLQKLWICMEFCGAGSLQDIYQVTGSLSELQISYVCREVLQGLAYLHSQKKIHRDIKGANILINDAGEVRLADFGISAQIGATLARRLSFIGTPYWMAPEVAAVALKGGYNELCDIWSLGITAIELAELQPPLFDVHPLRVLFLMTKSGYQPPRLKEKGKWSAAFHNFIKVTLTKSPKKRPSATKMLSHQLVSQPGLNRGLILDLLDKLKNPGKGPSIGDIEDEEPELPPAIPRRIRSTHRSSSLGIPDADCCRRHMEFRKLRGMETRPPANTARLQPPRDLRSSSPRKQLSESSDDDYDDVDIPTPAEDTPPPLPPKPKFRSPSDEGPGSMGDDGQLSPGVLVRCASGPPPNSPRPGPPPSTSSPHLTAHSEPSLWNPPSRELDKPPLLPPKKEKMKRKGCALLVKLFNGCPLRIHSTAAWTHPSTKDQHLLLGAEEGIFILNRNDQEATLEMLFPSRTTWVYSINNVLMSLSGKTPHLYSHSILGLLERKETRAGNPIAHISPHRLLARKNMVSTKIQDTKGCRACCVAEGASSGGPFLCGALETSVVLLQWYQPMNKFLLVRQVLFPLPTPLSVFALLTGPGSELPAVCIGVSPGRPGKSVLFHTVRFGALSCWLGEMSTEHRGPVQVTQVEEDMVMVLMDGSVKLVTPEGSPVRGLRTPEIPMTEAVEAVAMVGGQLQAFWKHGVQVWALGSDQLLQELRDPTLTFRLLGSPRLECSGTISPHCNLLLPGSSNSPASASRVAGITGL

| Structure (SMILES) | % amount of pSer376-SLP-76 @ 10 μM (pSer376-SLP-76) | % amount of pSer376-SLP-76 @ 20 μM (pSer376-SLP-76) | IC50 (MAP4K1) |
| --- | --- | --- | --- |
| O=C(NCCN1CCOCC1)Nc1ccc(Oc2ccnc3[nH]cc(C(F)(F)F)c23)cc1 [Example 1, 1-[2-(morpholin-4-yl)ethyl]-3-(4-{[3-(trifluoromethyl)-1H-pyrrolo[2,3-b]pyridin-4-yl]oxy}phenyl)urea] | 40.8% | 16.0% |  |
| Cc1cc(NC(=O)NCCCN2CCOCC2)ccc1Oc1ccnc2[nH]cc(C(F)(F)F)c12 [Example 4, 1-(3-methyl-4-{[3-(trifluoromethyl)-1H-pyrrolo[2,3-b]pyridin-4-yl]oxy}phenyl)-3-[3-(morpholin-4-yl)propyl]urea] | 45.6% | 18.1% | 74 nM |
| Cc1cc(NC(=O)NCCN2CCOCC2)ccc1Oc1ccnc2[nH]cc(C(F)(F)F)c12 [Example 5, 1-(3-methyl-4-{[3-(trifluoromethyl)-1H-pyrrolo[2,3-b]pyridin-4-yl]oxy}phenyl)-3-[2-(morpholin-4-yl)ethyl]urea] | 48.1% | 25.3% |  |
| N#Cc1cc(NC(=O)NCCN2CCOCC2)ccc1Oc1ccnc2[nH]cc(C(F)(F)F)c12 [Example 6, 1-(3-cyano-4-{[3-(trifluoromethyl)-1H-pyrrolo[2,3-b]pyridin-4-yl]oxy}phenyl)-3-[2-(morpholin-4-yl)ethyl]urea] |  |  | 212 nM |
| N#Cc1cc(NC(=O)NCCCN2CCOCC2)ccc1Oc1ccnc2[nH]cc(C(F)(F)F)c12 [Example 7, 1-(3-cyano-4-{[3-(trifluoromethyl)-1H-pyrrolo[2,3-b]pyridin-4-yl]oxy}phenyl)-3-[3-(morpholin-4-yl)propyl]urea] |  |  | 138 nM |
